Patent publication US20080171773A1, “FACTOR Xa INHIBITOR” (Pfizer Inc, priority 2006, published 2008)

Target: T1, human factor Xa (Homo sapiens, UniProt P00742)
T1 construct: factor Xa, a serine protease that occupies a pivotal position in the coagulation cascade
Experiment: Factor Xa inhibitory activity: inhibition of human factor Xa cleavage of substrate S-2765
Format: biochemical
Details: 30 pM human factor Xa, substrate S-2765 at its Km, pH 7.4, 37° C.; mean of replicates (SD, SEM and n in separate columns)
Protocol: The ability of compounds to act as inhibitors of human factor Xa catalytic activity can be assessed by determination of the concentration of test substance that inhibits by 50% (IC50) the ability of human factor Xa to cleave the chromogenic substrate S2765 (N-CBz-D-Arg-L-Gly-L-Arg-p-nitroanilide. 2HCl).
The assay was performed in triplicate using a final concentration of 30 pM of human factor Xa (diluted in buffer containing 10 mM HEPES, 150 mM NaCl, 0.1% bovine serum albumin (BSA), pH 7.4). The substrate, S-2765 (N-CBz-D-Arg-L-Gly-L-Arg-p-nitroanilide, 2HCl), was run at a final concentration equal to its Km value. The (R) enantiomer was serially diluted in 100% DMSO (final assay concentration=2% DMSO) to final concentrations of 1.0 μM to […]. Dilutions were transferred to a black polystyrene 96-plate microtiter assay plate at a volume of 2.5 μL/well. […] The reactions were initiated by the addition of 50 μL of pre-warmed substrate and immediately placed in the microplate reader pre-warmed at 37° C.
A fluorometric plate reader was used to continuously monitor the rate of change in relative fluorescence units (RFUS) per unit time. The assay plate was mixed once before reading. The fluorogenic emission was read every 44 seconds for 30 minutes (excitation/emission of λex=390 nm and λex=460 nm; automatic cutoff=455 nm) at 37° C.

T1 sequence (P00742 235-488 limits assumed): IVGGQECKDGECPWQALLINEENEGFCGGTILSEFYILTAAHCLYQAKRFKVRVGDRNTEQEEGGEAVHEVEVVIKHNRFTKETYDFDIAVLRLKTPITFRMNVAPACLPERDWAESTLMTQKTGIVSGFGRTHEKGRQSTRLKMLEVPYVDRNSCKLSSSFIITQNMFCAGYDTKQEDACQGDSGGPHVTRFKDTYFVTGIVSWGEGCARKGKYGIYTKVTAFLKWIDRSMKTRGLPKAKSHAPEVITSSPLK
T1 sequence (P00742 41-179 partner limits assumed): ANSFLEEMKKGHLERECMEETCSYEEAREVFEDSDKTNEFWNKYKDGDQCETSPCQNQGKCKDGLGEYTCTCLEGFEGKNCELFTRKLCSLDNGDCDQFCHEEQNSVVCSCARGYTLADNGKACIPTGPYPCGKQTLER

IC50 [nM] | Structure (SMILES)
0.982 | C[C@]1(C(=O)Nc2ccc(-n3ccccc3=O)cc2F)CC=NN1C(=O)Nc1ccc(Cl)cc1 [(R) enantiomer, (R)-5-Methyl-4,5-dihydro-pyrazole-1,5-dicarboxylic acid 1-[(4-chloro-phenyl)-amide] 5-{[2-fluoro-4-(2-oxo-2H-pyridin-1-yl)-phenyl]-amide}]
141 | C[C@@]1(C(=O)Nc2ccc(-n3ccccc3=O)cc2F)CC=NN1C(=O)Nc1ccc(Cl)cc1 [(S) enantiomer, (S)-5-Methyl-4,5-dihydro-pyrazole-1,5-dicarboxylic acid 1-[(4-chloro-phenyl)-amide] 5-{[2-fluoro-4-(2-oxo-2H-pyridin-1-yl)-phenyl]-amide}]
